This is an account of results in patent US10183015B2, “Heterocyclic compounds and methods of use” (Medivation Technologies LLC, priority 2015, dated 2019).

Where two headings read alike, the source gives them in different places.

The subject of one series is SREBP2. The experiment in a line: SREBP2 cleavage in HepG2 cells (Western blot). In kind it is cell-based. The conditions noted are these: 20 μM, 1 day, DMEM without FBS. The method, then:
(§1) Cancer cells such as HepG2 cells depend on SREBP activation and de novo lipogenesis to survive, particularly in low serum or serum-free conditions. Using this model, compounds were screened over 24 hours for the ability to block cleavage of SREBP to its active form and over 72 hours for an effect on cell viability under serum-free conditions.
Average SREBP2 cleavage in HepG2 cells was measured in the presence of compounds disclosed in Table 1. HepG2 cells were seeded at 500,000 cells per well in 6-well plates in DMEM supplemented with 10% FBS. After 2 days, cells were treated with compounds (20 μM) for 1 day in DMEM without FBS. Western blots were normalized with respect to actin.
Background: Immunoblotting shows a protein as a band on a membrane.

A short description of series [1]: PK parameters for representative compounds (i.v. and p.o.), Table 4. The conditions noted are these: in vivo; for half-life: read-out: Terminal t1/2 (converted).
In a further series the test system is HepG2 cells. Put plainly: HepG2 cell viability under serum-free conditions (MTS). The conditions noted are these: Homo sapiens, HepG2, 72 h, 3 days, DMEM without FBS, read-out: Average Viability (% Inhibition, n = 3). In kind it is cell-based. The method, then: as §1
For viability measurements, HepG2 cells were seeded at 5,000 cells per well in 96-well plates in DMEM supplemented with 10% FBS. After 1 day in culture, cells were treated with compounds (20 μM & 5 μM) for 3 days in DMEM without FBS. Viability was measured by MTS […]. […]

In the case of `CC(C)(C)c1cc(-c2nc(-c3ccc(NS(=O)(=O)C(F)(F)F)cc3Cl)cs2)ccn1` [Compound 5, N-(4-(2-(2-tert-butylpyridin-4-yl)thiazol-4-yl)-3-chlorophenyl)-1,1,1-trifluoromethanesulfonamide], in the series with SREBP2, the “Average SREBP2 cleavage (% Inhibition, n = 3)” value was 81.7%. For the same molecule, in series [1] (iv, i.v. @ 2 mg/kg), the area under the curve AUC(0-t) stood at 41 µM·h, the highest concentration (Cmax) came to 10.2 µM, the Vd is 0.345 L/kg and the clearance was 1.58 mL/min/kg. Moreover, the half-life in series [1] (iv, i.v. @ 2 mg/kg) is 2.51 h. In series [1] (po, p.o. @ 10 mg/kg), the area under the curve AUC(0-t) was determined as 302 µM·h, the Cmax is 20.3 µM, the Tmax was determined as 1 h and the half-life was 6.96 h. Further, the bioavailability in series [1] (po, p.o. @ 10 mg/kg vs i.v. @ 2 mg/kg) worked out at 149%. Further, the cytotoxicity at 20 µM with HepG2 cells worked out at 99.2%.
For `O=S(=O)(Nc1ccc(-c2csc(-c3ccc4c(c3)CCO4)n2)c(Cl)c1)C(F)(F)F` [Compound 82, N-{3-chloro-4-[2-(2,3-dihydro-1-benzofuran-5-yl)-1,3-thiazol-4-yl]phenyl}-1,1,1-trifluoromethanesulfonamide], the cytotoxicity at 5 µM in the series with HepG2 cells amounted to 82%.
With `CCCc1cc(-c2nc(-c3cccc(NS(=O)(=O)C(F)(F)F)c3)cs2)ccn1` [Compound 2, 1,1,1-trifluoro-N-(3-(2-(2-propylpyridin-4-yl)thiazol-4-yl)phenyl)methanesulfonamide], the cytotoxicity at 20 µM with HepG2 cells turned out to be 80.5%.
The same measure, in the same setting: to `CCCc1cc(-c2nc(-c3ccc(NS(=O)(=O)C(F)(F)F)cc3)cs2)ccn1` [Compound 1, 1,1,1-trifluoro-N-(4-(2-(2-propylpyridin-4-yl)thiazol-4-yl)phenyl)methanesulfonamide] belongs 92.1%.
On to `O=S(=O)(Nc1ccc(-c2csc(-c3ccc(F)cc3CN3CCCC3)n2)c(Cl)c1)C(F)(F)F` [Compound 91, N-(3-chloro-4-{2-[4-fluoro-2-(pyrrolidin-1-ylmethyl)phenyl]-1,3-thiazol-4-yl}phenyl)-1,1,1-trifluoromethanesulfonamide], for which the cytotoxicity at 5 µM in the series with HepG2 cells worked out at 4%.
Turning to `O=S(=O)(Nc1ccc(-c2csc(-c3ccnc(N4CCCCC4)c3)n2)c(Cl)c1)C(F)(F)F` [Compound 85, N-(3-chloro-4-{2-[2-(piperidin-1-yl)pyridin-4-yl]-1,3-thiazol-4-yl}phenyl)-1,1,1-trifluoromethanesulfonamide], the cytotoxicity at 5 µM with HepG2 cells turned out to be 93%.
Consider `CS(=O)(=O)Nc1cc(-c2nc(-c3ccc(NS(=O)(=O)C(F)(F)F)cc3Cl)cs2)ccn1` [Compound 62, N-{3-chloro-4-[2-(2-methanesulfonamidopyridin-4-yl)-1,3-thiazol-4-yl]phenyl}-1,1,1-trifluoromethanesulfonamide], for which the cytotoxicity at 20 µM with HepG2 cells is 0%.

What is called AUC(0-t) is the area under the concentration-time curve up to a stated or last time point. A low value points to less exposure. One may read the Cmax as the maximum level reached in the sampled fluid or tissue. The Tmax is the time at which the peak concentration occurs.
